Results published in ChEMBL document CHEMBL4334531, “Kalshinoids A-F, Anti-inflammatory Sesquiterpenes from Kalimeris shimadae” (J Nat Prod, 2019).
pIC50: −log10 of the molar value. Active and inactive are the calls of the source. The rule behind the calls is not given here.

Tests used:
[1] = test system: THP-1; assay: Antiinflammatory activity against human THP1 cells assessed as inhibition of LPS-induced TNFalpha production by measuring TFNalpha level at 5 uM preincubated for 4 hrs followed by LPS challenge and measured after 24 hrs incubation by ELISA; type: functional
[2] = test system: THP-1; assay: Antiinflammatory activity against human THP1 cells assessed as inhibition of LPS-induced TNFalpha production by measuring TFNalpha level at 10 uM preincubated for 4 hrs followed by LPS challenge and measured after 24 hrs incubation by ELISA; type: functional
[3] = test system: THP-1; assay: Antiinflammatory activity against human THP1 cells assessed as inhibition of LPS-induced TNFalpha production preincubated for 4 hrs followed by LPS challenge and measured after 24 hrs incubation by ELISA; type: functional, cell-based
[4] = Cytotoxicity against human THP1 cells assessed as cell viability at 40 uM after 72 hrs by SRB assay relative to control; type: cell-based; details: THP-1 cells, read-out: Activity
[5] = test system: THP-1; assay: Cytotoxicity against human THP1 cells assessed as reduction in cell viability after 72 hrs by SRB assay; type: cell-based; details: THP-1, 72 h
[6] = test system: THP-1; assay: Antiinflammatory activity against human THP1 cells assessed as inhibition of LPS-induced TNFalpha production at 200 uM preincubated for 4 hrs followed by LPS challenge and measured after 24 hrs incubation by ELISA; type: functional, cell-based

For `C=C1CC[C@@H](O)[C@]2(C)CC[C@@](O)(C(C)(C)O)C[C@@H]12`, the Activity [1] was 394.3 pg/mL, the Activity [2] was 328.9 pg/mL and the inhibition [3] was “Dose-dependent effect”. The viability at 72 h, 40 µM [4] was over 80% and the pIC50 [5] was under 4.40.
In the case of `CC(C)(O)C1=CC[C@@](C)(O)[C@H]2CC[C@@](C)(O)[C@H]2C1`, the Activity [1] was 699.2 pg/mL, the Activity [2] was 241.7 pg/mL and the inhibition [3] was “Dose-dependent effect”. It also gave a viability at 72 h, 40 µM [4] of over 80% and a pIC50 [5] of under 4.40.
In the case of `C[C@@H]1C[C@H]2[C@@H]3CCC4=CC(=O)C=C[C@]4(C)[C@@]3(F)[C@@H](O)C[C@]2(C)[C@@]1(O)C(=O)CO`, the inhibition [6] was “Active”.
With `COC(C)(C)C1=CC[C@@](C)(O)[C@H]2CC[C@](C)(O)[C@H]2C1` the Activity [1] was 801.6 pg/mL, the Activity [2] was 722.2 pg/mL and the inhibition [3] was “Dose-dependent effect”. It also gave a viability at 72 h, 40 µM [4] of over 80% and a pIC50 [5] of under 4.40.
